# In PMC4471902, “Block of NMDA receptor channels by endogenous neurosteroids: implications for the agonist induced conformational states of the channel vestibule” (Scientific Reports, 2015):
# “And” between values parts separate entries of the source, which are not always exact repeats. Equal entries are not always repeated. Structures can show the parent of a compound that is named as a salt. Where two headings read alike, the source gives them in different places.
# Legend:
# [1] = target: T1, GluN1-4a(F484A)/eGFP-GluN3A receptor (Rattus norvegicus, UniProt P35439+Q9R1M7, F484A); experiment: Whole-cell patch-clamp of glycine-activated GluN1-4a(F484A)/eGFP-GluN3A receptor responses in HEK293 cells; format: cell-based
# T1 construct: eGFP; expressed in transfected cells; host or cells: HEK293
# T1 sequence (Q9R1M7 24-1135, other chains not shown): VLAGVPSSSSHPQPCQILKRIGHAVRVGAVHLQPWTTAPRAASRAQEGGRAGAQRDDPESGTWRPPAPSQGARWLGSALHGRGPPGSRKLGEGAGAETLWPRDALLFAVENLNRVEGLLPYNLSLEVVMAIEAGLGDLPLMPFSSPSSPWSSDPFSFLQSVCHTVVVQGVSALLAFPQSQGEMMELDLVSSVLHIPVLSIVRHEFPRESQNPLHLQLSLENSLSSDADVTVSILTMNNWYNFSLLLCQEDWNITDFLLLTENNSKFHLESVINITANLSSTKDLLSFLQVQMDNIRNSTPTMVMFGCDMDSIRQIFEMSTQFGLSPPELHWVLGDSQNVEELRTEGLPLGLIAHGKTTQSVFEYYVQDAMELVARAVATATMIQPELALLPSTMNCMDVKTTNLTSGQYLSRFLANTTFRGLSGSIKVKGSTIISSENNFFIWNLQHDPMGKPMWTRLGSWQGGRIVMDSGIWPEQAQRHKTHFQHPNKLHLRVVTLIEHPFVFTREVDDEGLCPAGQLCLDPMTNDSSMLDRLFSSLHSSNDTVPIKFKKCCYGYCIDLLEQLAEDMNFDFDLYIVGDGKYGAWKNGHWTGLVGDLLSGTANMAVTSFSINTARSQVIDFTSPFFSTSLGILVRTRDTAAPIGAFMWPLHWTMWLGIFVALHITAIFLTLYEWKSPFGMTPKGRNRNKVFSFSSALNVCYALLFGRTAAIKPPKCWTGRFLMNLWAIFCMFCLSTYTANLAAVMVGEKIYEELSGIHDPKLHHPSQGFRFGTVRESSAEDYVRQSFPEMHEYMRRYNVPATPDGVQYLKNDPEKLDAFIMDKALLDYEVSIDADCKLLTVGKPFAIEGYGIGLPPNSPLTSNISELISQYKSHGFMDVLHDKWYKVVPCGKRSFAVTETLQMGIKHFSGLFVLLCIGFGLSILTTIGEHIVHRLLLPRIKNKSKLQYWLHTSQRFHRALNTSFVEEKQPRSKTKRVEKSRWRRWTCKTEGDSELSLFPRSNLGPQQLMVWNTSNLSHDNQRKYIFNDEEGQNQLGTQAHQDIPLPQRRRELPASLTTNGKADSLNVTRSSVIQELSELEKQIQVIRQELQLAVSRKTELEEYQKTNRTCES
# From the text: Human embryonic kidney (HEK293) cells were transfected with expression vectors containing: GluN1–1a (GenBank accession number U08261)[52]; GluN2B (GenBank accession number M91562); GluN1-4a(F484A), (generous gift from Dr. J. J. Woodward)[53] (Smothers & Woodward, 2009); GluN3A (generous gift from Dr. S. A. Lipton)[54] (GenBank accession number NM_138546); GluN1ΔN with deleted 354 amino acids in the NTD (32 to 386); GluN1ΔC with an introduced stop codon in 838 of the CTD GluN2BΔN) with deleted 354 amino acids in the NTD (32 to 386); GluN2BΔC with an introduced stop codon in 844 of the CTD[55]; GluR0 (GenBank accession number Synechocystis PCC 6803) (generous gift from Dr. M. L. Mayer)[18]; and green fluorescent protein (GFP) (pQBI 25, Takara, Tokyo, Japan) genes, as described previously. The Quick-Change site-directed mutagenesis kit (Agilent Technologies, Santa Clara, CA, USA) was used to generate specific point mutations in the M1/M3 region according to the manufacturer’s instructions using manually designed primers purchased from Sigma. Modified DNA plasmids were transformed into competent XL10-Gold E.coli cells, positive clones were selected, and isolated DNA was sequenced. […]
# (§1) The IC50 was determined from a single dose of a steroid using the formula [drawing 1] where I is the relative degree of inhibition and [steroid] is the steroid concentration used. […]
# GluN1/GluN2B receptors = target: T2, GluN1/GluN2B receptors (Rattus norvegicus, UniProt P35439+Q00960); experiment: Whole-cell patch-clamp of GluN1/GluN2B receptor responses in transfected HEK293 cells; format: cell-based
# T2 construct: expressed in transfected cells; host or cells: HEK293
# T2 sequence (Q00960 27-1482, other chains not shown): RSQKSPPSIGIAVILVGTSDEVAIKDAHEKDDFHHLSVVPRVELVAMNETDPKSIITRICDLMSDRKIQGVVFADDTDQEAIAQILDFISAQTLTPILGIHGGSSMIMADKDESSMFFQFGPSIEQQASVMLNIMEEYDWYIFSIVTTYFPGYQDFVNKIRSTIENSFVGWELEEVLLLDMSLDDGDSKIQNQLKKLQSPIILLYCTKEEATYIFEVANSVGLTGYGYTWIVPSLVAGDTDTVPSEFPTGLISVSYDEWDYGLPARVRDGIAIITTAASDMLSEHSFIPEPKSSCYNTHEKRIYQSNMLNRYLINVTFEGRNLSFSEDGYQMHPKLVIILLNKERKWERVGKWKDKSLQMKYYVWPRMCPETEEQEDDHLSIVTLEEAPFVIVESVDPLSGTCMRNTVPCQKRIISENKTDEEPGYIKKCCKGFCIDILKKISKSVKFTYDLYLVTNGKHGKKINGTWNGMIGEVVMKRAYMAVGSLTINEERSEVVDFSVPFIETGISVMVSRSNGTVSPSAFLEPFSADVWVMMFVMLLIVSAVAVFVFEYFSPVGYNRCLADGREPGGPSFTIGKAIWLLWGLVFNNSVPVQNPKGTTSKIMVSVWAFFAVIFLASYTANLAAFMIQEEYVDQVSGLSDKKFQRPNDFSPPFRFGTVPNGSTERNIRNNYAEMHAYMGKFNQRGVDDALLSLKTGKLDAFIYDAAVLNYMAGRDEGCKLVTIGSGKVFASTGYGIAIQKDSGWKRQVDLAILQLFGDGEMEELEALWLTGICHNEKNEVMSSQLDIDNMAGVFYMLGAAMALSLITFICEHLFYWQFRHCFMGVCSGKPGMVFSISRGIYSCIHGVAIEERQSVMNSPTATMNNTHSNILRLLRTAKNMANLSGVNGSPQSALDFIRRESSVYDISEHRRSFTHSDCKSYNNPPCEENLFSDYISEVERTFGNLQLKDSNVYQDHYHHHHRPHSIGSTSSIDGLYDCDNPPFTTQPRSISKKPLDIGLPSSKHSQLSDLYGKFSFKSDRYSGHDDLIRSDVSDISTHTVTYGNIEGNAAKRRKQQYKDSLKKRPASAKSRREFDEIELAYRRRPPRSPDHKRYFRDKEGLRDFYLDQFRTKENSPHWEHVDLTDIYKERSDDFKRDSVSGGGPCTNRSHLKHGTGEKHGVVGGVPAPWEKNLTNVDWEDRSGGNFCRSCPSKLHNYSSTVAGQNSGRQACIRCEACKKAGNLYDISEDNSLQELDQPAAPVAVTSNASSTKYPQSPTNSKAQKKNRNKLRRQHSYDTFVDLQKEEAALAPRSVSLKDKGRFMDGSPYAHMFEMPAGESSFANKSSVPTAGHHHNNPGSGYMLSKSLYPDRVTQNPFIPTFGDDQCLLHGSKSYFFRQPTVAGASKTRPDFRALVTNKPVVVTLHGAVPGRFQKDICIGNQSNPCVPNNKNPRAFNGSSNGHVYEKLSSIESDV
# From the text: (§2) Human embryonic kidney (HEK293) cells were transfected with expression vectors containing: GluN1–1a (GenBank accession number U08261)[52]; GluN2B (GenBank accession number M91562); GluN1-4a(F484A), (generous gift from Dr. J. J. Woodward)[53] (Smothers & Woodward, 2009); GluN3A (generous gift from Dr. S. A. Lipton)[54] (GenBank accession number NM_138546); GluN1ΔN with deleted 354 amino acids in the NTD (32 to 386); GluN1ΔC with an introduced stop codon in 838 of the CTD GluN2BΔN) with deleted 354 amino acids in the NTD (32 to 386); GluN2BΔC with an introduced stop codon in 844 of the CTD[55]; GluR0 (GenBank accession number Synechocystis PCC 6803) (generous gift from Dr. M. L. Mayer)[18]; and green fluorescent protein (GFP) (pQBI 25, Takara, Tokyo, Japan) genes, as described previously. The Quick-Change site-directed mutagenesis kit (Agilent Technologies, Santa Clara, CA, USA) was used to generate specific point mutations in the M1/M3 region according to the manufacturer’s instructions using manually designed primers purchased from Sigma. Modified DNA plasmids were transformed into competent XL10-Gold E.coli cells, positive clones were selected, and isolated DNA was sequenced. […] All mutations were verified by DNA sequencing (Macrogen, Seoul, Korea or SeQme, Dobris, Czech Republic). The amino acids are numbered according to the full-length protein, including the signal peptide, with the initiating methionine as 1.
# (§3) Experiments were performed 24–48 hrs after transfection on cells transfected with GluN1/GluN2B/GFP plasmids. Whole-cell voltage-clamp recordings from HEK293 cells were made with a patch-clamp amplifier (Axopatch 200B; Axon Instruments, Inc., Foster City, CA) after a capacitance and series resistance (<10 MΩ) compensation of 80–90%.
# (§4) Patch pipettes (3–5 MΩ) were filled with a solution containing (in mM): 120 gluconic acid, 15 CsCl, 10 BAPTA, 10 HEPES, 3 MgCl2, 1 CaCl2, and 2 ATP-Mg salt (pH-adjusted to 7.2 with CsOH). When GluR0 receptor responses were studied, intracellular solution contained (in mM): 120 gluconic acid, 15 KCl, 10 BAPTA, 10 HEPES, 3 MgCl2, 1 CaCl2, and 2 ATP-Mg salt (pH-adjusted to 7.2 with KOH). Extracellular solution (ECS) contained the following (in mM): 160 NaCl, 2.5 KCl, 10 HEPES, 10 glucose, 0.2 EDTA, and 0.7 CaCl2 (pH-adjusted to 7.3 with NaOH). Glycine (10 μM), an NMDAR co-agonist, was present in the control and test solutions. All (PA-S and PA-A) solutions were made from freshly prepared 20 mM PA-S and 5 mM PA-A stock in dimethyl sulfoxide (DMSO). The final dilution to ECS was made at 50 °C and followed by 1 min sonication (SONOREX DIGITEC DT 100/H, BADELIN electronic, Berlin, Germany). The same concentration of DMSO was added to all extracellular solutions. Drug applications were made with a microprocessor-controlled multibarrel fast-perfusion system. Changes in the glutamate-induced current in HEK293 cells transfected by GluN1/GluN2B subunits were used to estimate the rate of solution exchange around the cell. Standard ECS was switched to the ECS diluted by water (50%) during glutamate application. The osmolarity was adjusted by sucrose to match the standard ECS. Glutamate (1 mM), glycine (10 μM) and pH was maintained constant in both solutions. The solution exchange rate was estimated to be τ = 4.3 ± 0.3 ms (n = 6) for lifted cells and τ = 12.0 ± 0.9 ms (n = 6) for the attached cells.
# Experiments were performed at room temperature (21–25 °C). Data were collected (low-pass filtered at 2 kHz and sampled at 10 kHz) and analyzed using pClamp 10 (Molecular Devices). Unless otherwise mentioned, error bars represent SEM; statistical comparison of groups was performed using Student’s t-test (p < 0.05 was used to determine the significance).
# as §1
# [2] = target: T3, GluN1(T648A)/GluN2B receptors (Rattus norvegicus, UniProt P35439+Q00960, T648A); experiment: Whole-cell patch-clamp of GluN1(T648A)/GluN2B receptor responses in HEK293 cells; format: cell-based; settings: for inhibition at 200 µM: HEK293, PA-S 200 μM
# T3 construct: expressed in transfected cells; host or cells: HEK293
# T3 sequence (Q00960 27-1482, other chains not shown): as above
# From the text: as §2, §3, §4
# as §1, with “used. Calculations of IC50 were made assuming 100% inhibition at saturating steroid concentration this is valid for both PA-S and PA-A[12][13].” for “used.”
# [3] = test system: non-transfected HEK293 cells; experiment: Membrane capacitance measurement of steroid association with and exit from the membrane; format: cell-based, Human
# From the text: Membrane capacitance was estimated by examining the integrated capacitive current (sampled at 30 kHz at 10 kHz filter cutoff frequency) evoked by depolarizing or hyperpolarizing voltage pulses from −60 mV to +30 mV for 3 ms delivered at 200 Hz.
# [4] = 150 μM PA-S co-applied with 1 mM glutamate, 10 μM glycine, attached HEK293 cells
# [5] = lifted HEK293 cells, 150 μM PA-S co-application with glutamate
# [6] = lifted HEK293 cells, 150 μM PA-S wash
smiles,measurement,setting,value
"CC(=O)[C@H]1CC[C@H]2[C@@H]3CC[C@@H]4C[C@H](OS(=O)(=O)O)CC[C@]4(C)[C@H]3CC[C@]12C [PA-S, 20-oxo-5β-pregnan-3α-yl sulfate]","degree of PA-S inhibition, mutated vs WT GluN1-4a subunit in combination with GluN3A",[1],no significant difference
same,IC50,"[1]; glycine-activated, PA-S 50 µM",27 ± 3 µM
same,onset of response to glycine Af,GluN1/GluN2B receptors,84 ± 5%
same,onset of response to glycine τf,GluN1/GluN2B receptors,29 ± 3 ms
same,onset of response to glycine τs,GluN1/GluN2B receptors,280 ± 72 ms
same,onset of inhibition Af,GluN1/GluN2B receptors; [4],75 ± 3%
same,onset of inhibition τf,GluN1/GluN2B receptors; [4],30 ± 2 ms
same,onset of inhibition τs,GluN1/GluN2B receptors; [4],579 ± 92 ms
same,recovery from inhibition (offset) τs,"GluN1/GluN2B receptors; 150 μM PA-S, 1 mM glutamate, 10 μM glycine, attached HEK293 cells",536 ± 79 ms
same,intercept of linear fit of mean inhibition versus holding potential,"GluN1/GluN2B receptors; PA-S 200 µM, 1 mM glutamate, WT",85.2
same,voltage dependence of steroid inhibition,GluN1/GluN2B receptors; WT GluN1/GluN2B,voltage independent
same,mode of inhibition,GluN1/GluN2B receptors; dependence on receptor activation by agonists,use-dependent
same,time constant of the slow rate of recovery from inhibition,GluN1/GluN2B receptors; glutamate and steroid co-application for 30 s,902 ± 201 ms
same,onset of the response to glutamate application (10–90%),GluN1/GluN2B receptors; immediately after 30 s PA-S (150 μM) pre-application in the absence of glutamate,18.4 ± 1.6 ms
same,onset of inhibition As,GluN1/GluN2B receptors; [5],20 ± 4%
same,onset of inhibition τf,GluN1/GluN2B receptors; [5],10.8 ± 2.2 ms
same,onset of inhibition τs,GluN1/GluN2B receptors; [5],480 ± 108 ms
same,off rate As,GluN1/GluN2B receptors; [6],65% and 41 ± 6%
same,off rate τf,GluN1/GluN2B receptors; [6],16 ms and 14.3 ± 1.7 ms
same,off rate τs,GluN1/GluN2B receptors; [6],367 ms and 311 ± 70 ms
same,IC50,[2],758 ± 27 µM
same,voltage dependence of steroid inhibition,[2],voltage independent
same,inhibition at 200 µM,[2]; read-out: degree of inhibition of agonist-evoked currents,13.6 ± 0.9%
same,inhibition at 200 µM,[2]; read-out: degree of inhibition of spontaneous currents,13.8 ± 0.7%
same,intercept of linear fit of mean inhibition versus holding potential,"[2]; PA-S 200 µM, 1 mM glutamate",15.8
same,fast dissociation time constant from the membrane,[3],≤ 1 ms
same,koff (rate of steroid dissociation from the membrane),[3],≥ 1000 s⁻¹
same,capacitance increase during the steroid application,"[3]; PA-S 150 μM for 1 s, attached cells",~ 3%
same,capacitance return after steroid washout As,"[3]; PA-S 150 μM, attached cells",41 ± 2%
same,capacitance return after steroid washout τf,"[3]; PA-S 150 μM, attached cells",< 5 ms
same,capacitance return after steroid washout τs,"[3]; PA-S 150 μM, attached cells",222 ± 8 ms and 244 ms
same,capacitance change after PA-S washout τ,"[3]; lifted cells, only fast component resolved",< 5 ms
